Test in all cases: NCI tumour cell line growth inhibition, 48 h
Assay [1] relates to K562.
The subject of assay [2] is OVCAR-4.
For assay [3], the system named is HCT-116.
Assay [4] concerns A498.
The test system of assay [5] is UO-31.
Assay [6] relates to MOLT-4.
Assay [7] concerns RPMI-8226.
In assay [8] the test system is SK-OV-3.
In assay [9] the test system is HL-60.
Assay [10] deals with HCC 2998.
Assay [11] has as its system CCRF-CEM.
Assay [12] concerns SNB-19.
For assay [13], the system named is 786-0.
The test system of assay [14] is SW-620.
For assay [15], the system named is SF-295.
For assay [16], the system named is MDA-N.
Assay [17] has as its system UACC-62.
In assay [18] the test system is RXF 393.
Assay [19] relates to OVCAR-3.
For assay [20], the system named is NCI-H226.

The record followed here is ChEMBL document CHEMBL1201862, “PubChem BioAssay data set” (2004).

Each structure is given as a SMILES string. “And” between values parts separate entries of the source, which are not always exact repeats. Equal values may be shown once.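 Each compound was tested at five concentrations against cells in 96-well plates for 48 hours. GI50: concentration for 50% inhibition of growth.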 The source made the active and inactive calls. Cut-off read from the data, not from the text of the source: active = GI50 up to about 1.1 µM and inactive = higher.

With `CC(=O)OCCN1c2ccccc2Sc2cnccc21`, the GI50 in assay [1], in assay [2], in assay [3], in assay [4], in [5] and in assay [6] was > 10 µM (inactive) each time. The GI50 in assay [7], in assay [8], in assay [9], in [10], in assay [11] and in assay [12] was > 10 µM (inactive) each time. Besides, the GI50 in assay [13], in assay [14], in assay [15], in [16], in assay [17] and in assay [18] was > 10 µM (inactive) throughout. Further, the GI50 in [19] and in assay [20] was > 10 µM (inactive) throughout.

Regarding `COc1ccc2c(c1)-c1nc(=S)n(CCCN(C)C)c3ccc([N+](=O)[O-])c(c13)N2`, the GI50 was 0.454 µM (active) in assay [1]; 1.13 µM (inactive) in [2]; 0.224 µM (active) in assay [3]; 4.09 µM (inactive) in assay [4]; 0.49 µM (active) in [5]; 0.141 µM (active) in assay [6]. Moreover, the GI50 in [7] is 0.693 µM (active); in [8], 1.11 µM (active); in assay [9], 0.0269 µM (active); in assay [10] it was 1.5 µM (inactive); in assay [11], 0.205 µM (active); in [12], 0.8 µM (active). For the same compound, the GI50 in assay [13] was 0.279 µM (active); in [14], 0.344 µM (active); in assay [15], 1.81 µM (inactive); in [16], 0.815 µM (active); in [17], 12.1 µM (inactive); in [18], 0.471 µM (active). The GI50 in assay [19] was 1.59 µM (inactive); in [20], 1.36 µM (inactive).

Turning to `CC(C)(C)OC(=O)Nc1nnc(S(N)(=O)=O)s1`, the GI50 in assay [1], in assay [2], in assay [3], in [4], in assay [5] and in assay [6] was > 100 µM (inactive) each time. The GI50 in [7], in assay [8], in assay [9], in assay [10], in assay [11] and in assay [12] was > 100 µM (inactive) throughout. Besides, the GI50 in assay [13], in assay [14], in [15], in assay [16], in assay [17] and in [18] was > 100 µM (inactive) each time. The GI50 in assay [19] and in assay [20] was > 100 µM (inactive) throughout.

For the compound `NC(=S)NS(=O)(=O)c1ccc(F)cc1F`, the GI50 in assay [1], in assay [2], in assay [3], in assay [4], in assay [6] and in assay [7] was > 100 µM (inactive) throughout. Besides, the GI50 in assay [8], in [9], in assay [10], in assay [11], in [12] and in [13] was > 100 µM (inactive) throughout. In addition, the GI50 in assay [14], in [15], in [16], in assay [17], in assay [18] and in assay [19] was > 100 µM (inactive) in each case. Further, the GI50 in assay [20] was > 100 µM (inactive).

For the compound `Nc1ncnc2c1ncn2CC(O)C(=O)O` (configuration not stated), the GI50 in [1], in assay [2], in assay [3], in assay [4], in assay [5] and in [6] was > 100 µM (inactive) each time. In addition, the GI50 in [7], in assay [8], in [9], in assay [10], in [11] and in assay [12] was > 100 µM (inactive) throughout. The GI50 in [13], in assay [14], in [15], in [16], in assay [17] and in [18] was > 100 µM (inactive) in each case. The GI50 in assay [19] and in [20] was > 100 µM (inactive) each time.

For `C=CO/N=[N+](\[O-])N(CC)CC`, the GI50 in assay [1], in assay [2], in [3], in assay [4], in assay [6] and in assay [7] was > 100 µM (inactive) in each case. Besides, the GI50 in assay [8], in assay [9], in assay [10], in assay [11], in [12] and in [13] was > 100 µM (inactive) in each case. Besides, the GI50 in [14], in assay [15], in assay [16], in assay [17], in assay [18] and in assay [19] was > 100 µM (inactive) in each case. Further, the GI50 in [20] is > 100 µM (inactive).

As to `Nc1ccccc1.O=P(O)(OP(=O)(O)c1ccccc1)c1ccccc1`, the GI50 in assay [1], in assay [2], in assay [3], in [4], in [5] and in [7] was > 100 µM (inactive) in each case. Further, the GI50 in [8] is > 100 µM (inactive); in [9], 65.3 µM (inactive); in assay [10] it was > 100 µM (inactive); in assay [11], > 100 µM (inactive); in assay [12] it was > 100 µM (inactive); in assay [13], > 100 µM (inactive). Besides, the GI50 in [14] is > 100 µM (inactive); in assay [15], 96.4 µM (inactive); in assay [16], > 100 µM (inactive); in assay [17], > 100 µM (inactive); in assay [18] it was > 100 µM (inactive); in [19], > 100 µM (inactive). Moreover, in assay [20], the GI50 is > 100 µM (inactive).

Take `Cc1c(Cl)cccc1NC(=O)CC1Sc2ccccc2NC1=O` (configuration not stated): the GI50 in assay [1] was 6.59 µM (inactive) and 6.53 µM (inactive); in assay [2], 22 µM (inactive) and 16.5 µM (inactive); in [3], 13.9 µM (inactive) and 15.8 µM (inactive); in assay [4] it was 18.3 µM (inactive) and 16.5 µM (inactive); in assay [5] it was 19.4 µM (inactive) and 19.6 µM (inactive); in assay [6], 24.4 µM (inactive) and 26.5 µM (inactive). Also, the GI50 in assay [7] is 23.9 µM (inactive) and 32.4 µM (inactive); in assay [8], 16.4 µM (inactive) and 19.3 µM (inactive); in assay [9], 12.3 µM (inactive) and 8.43 µM (inactive); in assay [10] it was 14.3 µM (inactive) and 12 µM (inactive); in assay [11], 68.4 µM (inactive) and 46.2 µM (inactive); in assay [12] it was 19.4 µM (inactive) and 20.1 µM (inactive). Besides, the GI50 in assay [13] was 24 µM (inactive) and 17.4 µM (inactive); in [15] it was 37.5 µM (inactive) and 21.9 µM (inactive); in assay [16] it was 2.71 µM (inactive); in [18] it was 8.39 µM (inactive) and 16 µM (inactive); in [19], 15.3 µM (inactive) and 17.9 µM (inactive); in [20] it was 19.1 µM (inactive) and 17.9 µM (inactive).

Consider `CC1(C)OC(=O)C(C#N)=C1C[n+]1ccccc1`, for which the GI50 in assay [1], in assay [2], in assay [4], in [5], in assay [6] and in assay [7] was > 10 µM (inactive) each time. Further, the GI50 in assay [8], in assay [9], in [10], in [11], in assay [12] and in assay [13] was > 10 µM (inactive) throughout. The GI50 in [14], in assay [15], in assay [16], in assay [18], in assay [19] and in [20] was > 10 µM (inactive) each time.

Take `Cc1cn(S(=O)(=O)c2ccccc2)c2c(OCc3ccccc3)cc(NS(C)(=O)=O)cc12`: the GI50 in assay [1] is 20.1 µM (inactive); in assay [2], 6.35 µM (inactive); in assay [3], 9.12 µM (inactive); in assay [4], 8.15 µM (inactive); in assay [5] it was 17.7 µM (inactive); in assay [6] it was 3.45 µM (inactive). Besides, the GI50 in [7] was 13.2 µM (inactive); in [8] it was 40.9 µM (inactive); in [9] it was 4.52 µM (inactive); in assay [10] it was 24.4 µM (inactive); in assay [12], 43.3 µM (inactive); in assay [13] it was 16.4 µM (inactive). The GI50 in [14] was 17.8 µM (inactive); in assay [15] it was 14.7 µM (inactive); in assay [16], 10.7 µM (inactive); in assay [17], 17.9 µM (inactive); in [18], 14.6 µM (inactive); in assay [19], 10.6 µM (inactive). In addition, the GI50 in assay [20] was 16.1 µM (inactive).
